Laboratory results published in PMC8443589, “Modelling human liver fibrosis in the context of non-alcoholic steatohepatitis using a microphysiological system” (Communications Biology, 2021).
Where “and” joins values, the source holds several entries; their conditions need not be identical. Equal entries are not always repeated.

Assays:
[1] = tested on: NASH liver microtissues (PHH, KC and HSC co-cultures); assay: Metabolic turnover (T1/2) in NASH liver microtissues in the MPS platform, LC-MS/MS; assay type: in vitro ADME, human; settings: 1 µM, 48 hours
Method: (§1) Despite many on-going clinical trials, there is still no approved treatment for NASH, but emerging data provide confidence that NASH is a pharmacologically responsive disease. […] First, we set out to determine an optimal dosing strategy for each of the treatments based on an assessment of their physicochemical properties and pharmacokinetic behaviour within the MPS device (Table 1). Non-specific binding to the MPS device was determined after a 72 h incubation with each candidate drug at 1 μM (Table 1). Both candidate drugs were calculated to have less than 0.1% loss as a consequence of non-specific binding to the MPS device (Table 1). […] Because the hepatocytes within the MPS device are metabolically competent, we evaluated the half-life for each candidate drug in NASH microtissues.
(§2) To determine the metabolic turnover of obeticholic acid and elafibranor in the MPS platform, both compounds were incubated with liver microtissues for 48 h starting at 1 µM and media samples taken at regular intervals (AdooQ Bioscience, UK). The presence of each compound in the cell culture medium was quantified by liquid chromatography-tandem mass spectrometry (LC-MS/MS). Samples were separated using a Waters Acquity UPLC system with an ACE Excel C18-AR column and analysed on a Waters TQ-S Micro mass spectrometer against quantitative standard curves. Both compounds were also assessed for protein binding in HEP-Fat media using rapid equilibrium dialysis (RED) and quantified using the same LC-MS/MS methodology.
(§3) Supplemental Figure 5 – Obeticholic acid and Elafibranor are metabolised in the NASH MPS model.
(§4) The metabolism of a) Elafibranor and b) Obeticholic acid and was assessed in PHH, KC and HSC co-cultures grown in the liver MPS platform for 7 days. Following a double media exchange the compounds were incubated with the microtissues at a starting concentration of 1 µM and media samples taken at regular intervals across 48 hours. Media samples were assessed for the concentration of compound by quantitative LC-MS.
(§5) (1 picture or pasted object on this page, not shown here)

[2] = as above; assay type: in vitro ADME, human; settings: human, NASH liver microtissues grown 7 days, medium sampled across 48 h
Method: as §1, §2, §3, §4, §5

[3] = tested on: liver MPS NASH model (PHH, KC and HSC co-cultures, high fat); assay: Quantitative confocal imaging of collagen type 1 and alpha SMA in liver MPS NASH model dosed with OCA or ELF; assay type: cell-based, human; settings: for Collagen type 1 fluroscent marker intensity: per MPS scaffold; for reduction of collagen-1 deposition / reduction of α-SMA expression: fat only NASH model, 10 days; for reduction of α-SMA expression: concentration-dependent
Method: Fig. 3 Obeticholic acid and Elafibranor both modulate inflammatory and fibrosis phenotype in liver MPS NASH model and phenotype can additionally be reversed with dietary changes. PHH, KC and HSC co-cultures were cultured in the MPS platform under high fat conditions and dosed with varying concentrations of Obeticholic acid (OCA) and Elafibranor (ELF) QD or vehicle control (control) for 10 days, following an initial 4-day pre-culture phase. a The secreted cytokine profile from liver microtissues was compared by Luminex to determine the effects of each compound on the inflammatory profile of the liver with samples analysed at day 8 and 14 of the culture. Data were normalised by Z-transformation to allow comparison of all analytes and presented as a heatmap. b The expression of fibrosis-associated genes was analysed in total RNA from control, OCA and ELF treated liver microtissues (highest concentration for each compound) using Human Fibrosis RT2 Profiler PCR Arrays. Gene expression changes are expressed as a fold change over control. c Liver microtissues were stained for collagen-type I, α-SMA, nuclei (DAPI - blue), phalloidin (green) and imaged by confocal microscopy. Representative images are shown and scale bars 200 µm. d Staining of microtissue was quantified by measuring total fluorescence intensity throughout individual microtissues, each data point represents an average of all the microtissues imaged within an MPS scaffold (min 8, max 20 microtissues). e PHH, KC and HSC co-cultures were cultured in the MPS platform under high fat or lean conditions for 30 days. Cultures either remained in the same type of media throughout or were switched at day 15 from fat media to lean media (Fat -> Lean). Cell culture medium samples were analysed for the presence of IL-6, f MCP-1, g TIMP-1, which were measured by ELISA. h Microtissues were stained with Oil-Red O to determine fat loading during culture period, total stain was quantified by absorbance at 510 nm. All datapoints shown, either as box-whisker plots highlighting mean and min-max or with error bars highlighting means ± SD. All data from a minimum of three independent cultures; statistical comparisons made to control samples unless other comparison shown.
To visualise fibrosis proteins in the liver microtissues, scaffolds were fixed for 15 min in 4% paraformaldehyde following culture in the MPS platform. They were permeabilized with 0.1% Triton-X and blocked with 2% BSA before staining overnight at 4 °C with antibodies against alpha SMA (Abcam, UK - ab7817) and collagen 1 (Rockland, USA—600 401 103 0.5). Scaffolds were then stained with fluorescently conjugated secondary antibodies (Alexa-Fluor 555 goat anti-rabbit #A21429; Alexa-Fluor 647 donkey anti-rabbit #A31573; Alexa-Fluor 555 goat anti-mouse #A21424; Alexa-Fluor 647 goat anti-mouse #A21235 (Thermofisher, UK) along with Phalloidin 488 (Thermofisher, UK) and Hoechst 33342 (Invitrogen) for 1.5 h at room temperature. Scaffolds were washed three times with PBS and mounted onto glass microscope slides with anti-fade mounting medium. Confocal fluorescent images of the stained scaffolds were captured using a Cell Voyager 7000 (CV700, Yokogawa Inc.) automated confocal microscope. Image acquisition was controlled using the SearchFirst functionality of the Wako Software suite (Fujifilm Wako Automation). A workflow was designed to automatically locate and acquire images of each scaffold in a consistent and unbiased manner (Supp. Fig. 1). The workflow consisted of a first round of acquisition where the entire slide is imaged at low (4×) magnification capturing the Hoechst channel only. Images were automatically stitched together using a MATLAB script and eight regions of interest (ROI) were identified on each scaffold (same array of ROI per scaffold). XY coordinates were fed back to the microscope which subsequently imaged each ROI with full Z stacks obtained at ×10 magnification, 120 µm stack with a 5 µm slice interval. […]

[4] = tested on: liver MPS NASH model (PHH, KC and HSC co-cultures); assay: Cue study: albumin production (ELISA); assay type: cell-based, human

metabolism in the NASH MPS model [1] | half-life at 1 µM [2] [h] | Molecule | Collagen type 1 fluroscent marker intensity ([3]; ELF 13 uM QD 10 days, listed as ELF) | reduction of collagen-1 deposition [3] | reduction of α-SMA expression [3] | Collagen type 1 fluroscent marker intensity ([3]; OCA 0.25 uM QD 10 days, listed as OCA) | Collagen type 1 fluroscent marker intensity ([3]; OCA 5 uM QD 10 days, listed as OCA) | Albumin production [4]
metabolised | 16 | CSc1ccc(C(=O)/C=C/c2cc(C)c(OC(C)(C)C(=O)O)c(C)c2)cc1 [Elafibranor] | 1659.63 and 1182.93 and 1579.82 and 1137.61 and 1507.1 | up to 35% | up to 50% | – | – | –
metabolised | 12 | CC[C@H]1[C@@H](O)[C@@H]2[C@H](CC[C@]3(C)[C@@H]([C@H](C)CCC(=O)O)CC[C@@H]23)[C@@]2(C)CC[C@@H](O)C[C@@H]12 [Obeticholic acid] | – | up to 35% | up to 50% | 2993.61 and 2644.36 and 2590.02 and 1579.53 | 1471.67 and 1379.09 and 1471.56 and 1817.03 and 1176.35 and 1231.08 | –
– | – | TGFβ: recombinant TGF beta 1 protein (Abcam), 1 ng/ml cue | – | – | – | – | – | reduced albumin production
